PMC8688152, “Distinct classes of potassium channels fused to GPCRs as electrical signaling biosensors” (Cell Reports Methods, 2021)

Experiments:
[1] = target: unfused Kcv (Paramecium bursaria Chlorella virus 1, UniProt Q84568); test: TEVC controls: unfused Kcv co-expressed with M2, and Kcv alone; assay type: cell-based; settings: co-expression of unfused M2 and Kcv, and Kcv alone
Protocol: (§1) Microelectrodes were filled with […]. […] The membrane voltage was clamped to −50 mV.

[2] = target: T1, M2_T-00-43 (UniProt P08172+P97438); test: TEVC recording of M2_T-00-43 ICCR in Xenopus oocytes; assay type: cell-based, human (M2), mouse (TREK-1); parameters: full-length (−00) or M2 deleted of its last nine residues (−09) in the indicated ICCRs; expressed in transfected cells; host or cells: Xenopus oocytes (mRNA injection)
T1 sequence (P08172+P97438 with tags, fused parts or gaps): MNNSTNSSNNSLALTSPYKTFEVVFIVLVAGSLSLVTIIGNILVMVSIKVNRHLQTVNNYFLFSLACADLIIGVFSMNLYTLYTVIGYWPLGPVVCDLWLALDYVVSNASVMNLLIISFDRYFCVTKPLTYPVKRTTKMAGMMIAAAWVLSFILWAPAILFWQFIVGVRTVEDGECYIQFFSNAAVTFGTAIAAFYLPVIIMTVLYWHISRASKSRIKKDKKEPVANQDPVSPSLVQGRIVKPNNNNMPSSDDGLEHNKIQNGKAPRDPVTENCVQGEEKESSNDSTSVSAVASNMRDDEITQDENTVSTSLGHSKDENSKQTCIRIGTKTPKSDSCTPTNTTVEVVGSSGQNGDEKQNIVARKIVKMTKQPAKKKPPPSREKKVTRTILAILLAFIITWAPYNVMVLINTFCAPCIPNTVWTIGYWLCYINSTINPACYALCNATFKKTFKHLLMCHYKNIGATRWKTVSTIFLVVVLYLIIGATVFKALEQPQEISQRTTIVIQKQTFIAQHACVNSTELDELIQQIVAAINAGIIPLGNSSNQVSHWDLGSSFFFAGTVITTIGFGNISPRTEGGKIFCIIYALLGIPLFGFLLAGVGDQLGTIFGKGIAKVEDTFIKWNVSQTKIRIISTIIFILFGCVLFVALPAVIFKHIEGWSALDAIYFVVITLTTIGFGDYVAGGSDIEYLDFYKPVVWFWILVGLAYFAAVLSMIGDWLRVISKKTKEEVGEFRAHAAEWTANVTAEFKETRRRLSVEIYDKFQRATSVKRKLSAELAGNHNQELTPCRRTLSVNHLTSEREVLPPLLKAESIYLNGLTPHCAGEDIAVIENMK
Protocol: Xenopus oocytes were prepared as previously reported ([Moreau et al., 2008]). Briefly, after surgical retrieval, the oocytes were defolliculated by type 1A collagenase. Each oocyte was injected with 50 nl of RNAse-free water containing the desired mRNAs. The mRNA quantities used per oocyte were: ICCR with Kcv, 2.7 ng (M2_Kcv and D2_Kcv) and 2.9 ng (OXTR_Kcv); ICCR with mTREK-1, 4.2 ng; ICCR with Kir6.2, 4.3 ng; M2, 2.3 ng; D2, 2.2 ng; Kir3.4T, 2.2 ng; Kcv 0.46 ng and mTREK-1, 2.1 ng. Microinjected oocytes were incubated 2 to 3 days at 19°C in modified-Barth's solution (in mM: 1 KCl, 0.82 MgSO4, 88 NaCl, 2.4 NaHCO3, 0.41 CaCl2, 16 HEPES, pH 7.4) supplemented with 100 U.ml^−1 of penicillin and streptomycin and 0.1 mg.mL^−1 of gentamycin. Animal handling and experiments fully conformed to European regulations and were approved by the French Ministry of Higher Education and Research (APAFIS#4420-2016030813053199 v4 to CM). Authorization of the animal facility has been delivered by the Prefect of Isere (Authorization #D 38 185 10 001).
Two-electrode voltage-clamp (TEVC) recordings were performed automatically with HiClamp robots (MultiChannel Systems). These TEVC robots rapidly change the applied solutions by transferring the oocytes in different wells of a 96-well plate. […] Microelectrodes were filled with […]. During recordings, oocytes were incubated in low potassium concentration buffer (ND96, in mM: 96 NaCl, 2 KCl, 1.8 CaCl2, 1 MgCl2, 5 HEPES, pH 7.4 supplemented with 0.3 niflumic acid), and in high potassium buffer (in mM: 91 KCl, 1.8 CaCl2, 1 MgCl2, 5 HEPES, 0.3 niflumic acid, pH 7.4). The membrane voltage was clamped to −50 mV. Ligands and BaCl2 were diluted in the high potassium buffer. […] Ligand effects were measured in high potassium concentration buffer with the membrane potential clamped to −50 mV and at 19°C.
Change of potassium current induced by ligand was calculated either with the barium-sensitive currents as a 0-reference for Kcv-based ICCRs or with the currents in ND96 for mTREK-1 ICCRs. Softwares created by Michel Vivaudou ([Vivaudou, 2019]) were used to extract the raw data.

[3] = target: T2, M2_T-09-40 (UniProt P08172+P97438); test: TEVC recording of M2_T-09-40 in Xenopus oocytes; assay type: cell-based, human (M2), mouse (TREK-1); settings: ACh 5 μM
T2 construct: expressed in transfected cells; host or cells: Xenopus oocytes (mRNA injection)
T2 sequence (P08172+P97438 fused): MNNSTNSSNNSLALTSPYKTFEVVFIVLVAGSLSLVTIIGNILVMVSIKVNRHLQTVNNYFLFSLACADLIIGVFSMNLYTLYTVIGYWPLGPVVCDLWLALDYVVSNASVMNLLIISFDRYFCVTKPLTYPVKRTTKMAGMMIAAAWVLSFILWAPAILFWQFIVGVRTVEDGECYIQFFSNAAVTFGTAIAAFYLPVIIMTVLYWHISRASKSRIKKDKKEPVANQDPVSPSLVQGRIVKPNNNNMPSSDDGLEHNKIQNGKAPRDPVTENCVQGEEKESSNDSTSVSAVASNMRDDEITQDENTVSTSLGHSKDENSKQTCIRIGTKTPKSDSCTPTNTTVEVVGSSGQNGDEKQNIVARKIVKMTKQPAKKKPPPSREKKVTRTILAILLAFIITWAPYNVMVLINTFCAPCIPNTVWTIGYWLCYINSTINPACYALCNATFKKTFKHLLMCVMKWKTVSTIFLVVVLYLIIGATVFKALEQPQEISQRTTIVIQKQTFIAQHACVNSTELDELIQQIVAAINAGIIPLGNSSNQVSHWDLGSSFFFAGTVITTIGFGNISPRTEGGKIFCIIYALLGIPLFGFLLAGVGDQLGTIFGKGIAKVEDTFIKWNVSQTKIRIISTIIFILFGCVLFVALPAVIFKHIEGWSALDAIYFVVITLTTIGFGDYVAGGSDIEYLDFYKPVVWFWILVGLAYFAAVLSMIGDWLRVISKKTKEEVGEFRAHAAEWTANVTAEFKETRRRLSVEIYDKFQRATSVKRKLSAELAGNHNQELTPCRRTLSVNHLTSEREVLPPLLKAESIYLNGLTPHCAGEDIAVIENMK
Protocol: as §1

[4] = tested on: Kir3.4T (Kir3.4(S143T)) co-expressed with M2_T constructs; test: G protein activation assay: Kir3.4T co-expressed with M2_T ICCRs (TEVC); assay type: cell-based, Xenopus oocytes; settings: 5 μM ACh
Protocol: as §1

[5] = target: T3, M2_T-09-43 (UniProt P08172+P97438); test: TEVC recording of M2_T-09-43 in Xenopus oocytes; assay type: cell-based, human (M2), mouse (TREK-1); settings: ACh 5 μM
T3 construct: expressed in transfected cells; host or cells: Xenopus oocytes (mRNA injection); gene synthesized by ATG:biosynthetics
T3 sequence (P08172+P97438 fused): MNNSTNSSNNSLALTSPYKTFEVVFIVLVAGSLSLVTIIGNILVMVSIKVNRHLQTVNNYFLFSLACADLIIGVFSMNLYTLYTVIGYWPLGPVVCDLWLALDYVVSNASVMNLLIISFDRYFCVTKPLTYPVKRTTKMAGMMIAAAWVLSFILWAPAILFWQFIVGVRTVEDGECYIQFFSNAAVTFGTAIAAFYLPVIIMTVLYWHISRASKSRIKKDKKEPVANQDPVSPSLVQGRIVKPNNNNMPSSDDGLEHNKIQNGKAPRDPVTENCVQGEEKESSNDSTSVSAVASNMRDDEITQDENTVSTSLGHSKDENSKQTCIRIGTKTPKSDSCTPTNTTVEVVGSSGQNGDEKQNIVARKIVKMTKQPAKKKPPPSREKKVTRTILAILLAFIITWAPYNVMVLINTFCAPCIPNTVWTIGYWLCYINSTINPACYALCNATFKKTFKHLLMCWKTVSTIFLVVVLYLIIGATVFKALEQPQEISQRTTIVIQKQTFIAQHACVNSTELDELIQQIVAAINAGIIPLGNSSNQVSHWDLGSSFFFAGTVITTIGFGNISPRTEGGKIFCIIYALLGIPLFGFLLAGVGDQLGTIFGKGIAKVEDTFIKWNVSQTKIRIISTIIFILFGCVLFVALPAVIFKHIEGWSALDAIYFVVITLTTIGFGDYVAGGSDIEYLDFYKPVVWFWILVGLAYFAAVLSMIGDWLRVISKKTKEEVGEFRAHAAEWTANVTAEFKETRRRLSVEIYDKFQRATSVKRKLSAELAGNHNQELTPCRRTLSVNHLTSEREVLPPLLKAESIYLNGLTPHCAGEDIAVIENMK
Protocol: as §1

unfused Kcv, sequence (Q84568 whole entry, the tested form may be a part): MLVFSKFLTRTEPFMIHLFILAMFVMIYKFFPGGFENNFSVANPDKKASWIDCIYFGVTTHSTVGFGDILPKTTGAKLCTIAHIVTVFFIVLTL

Question: With `CC(=O)OCC[N+](C)(C)C` [ACh, acetylcholine] as the compound, how does the “regulation of unfused Kcv by ACh” value [1] read?
Answer: The value was “absence of regulation”.

Question: What about the “Hill coefficient (nH) on M2_T-00-43” value [2] of the same compound?
Answer: Its value is 0.76.

Question: And the “activation: % of current change induced by ACh 5 μM on M2_T-00-43” value [2]?
Answer: The value was 49.9% ± 5.1%.

Question: And the “activation: % of current change induced by ACh 5 μM on M2_T-00-43 co-expressed with PTX” value ([2]; 5 μM, co-injection of mRNA for pertussis toxin S1 subunit, mean ± SEM)?
Answer: Its value is 49.3% ± 4.4%.

Question: And the “regulation of M2_T-09-40 by ACh” value [3]?
Answer: The value was “no significant regulation”.

Question: And the “G protein activation (Kir3.4T) by M2_T-09-40 and -09-43” value [4]?
Answer: Its value is “still able to activate Gi/o proteins”.

Question: What about the “activation of Kir3.4T co-expressed with M2_T-00-37, −40, −43 and −46” value ([4]; no significant differences between the four constructs) of the same compound?
Answer: Its value is “clear activation”.

Question: And the “regulation of M2_T-09-43 by ACh” value [5]?
Answer: Its value is “no significant regulation”.
